Measured values as given in US6759238B1, “Multidrug resistance associated proteins and uses thereof” (priority 1999, dated 2004).
pIC50: −log10 of the molar value. Where two headings read alike, the source gives them in different places.

What was measured:
CEM-SS cells [1] = test: Uptake and metabolism of [3H]PMEA; settings: 10 μM [3H]PMEA
Description: (§2) The mutant and parental cells were incubated with 10 μM [^3H]PMEA and at various times were analyzed for intracellular levels of PMEA and its metabolites by Partisil SAX HPLC. […] The metabolism of [^3H]PMEA was also examined in both cell lines after longer periods (i.e., 8 and 12 hr) of incubation with 10 μM [^3H]PMEA.
(§3) Exponentially growing cultures were incubated with 10 μM [^3H] PMEA for 8 or 12 hr and the cell extracts were analyzed for PMEA and its metabolites by ion exchange HPLC, as described.
(§4) Exponentially growing CEM-SS and CEM-r1 cells were harvested by centrifugation, resuspended at 1×10^6 cells/ml in fresh medium in the presence of [^3H]PMEA or [^3H]bispom-PMEA, and incubated at 37° C. At the indicated time points, aliquots of the cells were removed and centrifuged through Nyosil 50 (W. F. Nye, Inc., New Bedford, Ma.) at 13,000×g for 60 seconds at 4° C. When bispom-PMEA was investigated, an aliquot of the cell-free medium was also removed and analyzed by HPLC for determination of extracellular metabolites. The cell pellet was extracted with 70% ice-cold methanol and the aqueous phase was collected and analyzed for intracellular tritiated PMEA or tritiated bispom-PMEA and their metabolites by using HPLC analysis, essentially as described previously (23, 24).

CEM-r1 cells [2] = test: Uptake and metabolism of [3H]PMEA; settings: for Intracellular levels: CEM-r1, 10 μM [3H]PMEA; for Intracellular level in CEM-r1 as percent of the wildtype level: CEM-r1 vs CEM-SS
Description: as §2, §3, §4

CEM-r1 cells [3] = test: Cytotoxicity assay (growth inhibition, Coulter counter); settings: for Relative Resistance: CEM-r1 vs CEM-SS (Table 3); for Cross-resistance of CEM-r1 cells (in words): relative sensitivity of wild-type and CEM-r1 cells
Description: Selection for PMEA resistance was carried out by exposing CEM-SS cells in culture to increasing concentrations of PMEA, over several months.
The IC50 values were obtained after 2 days of culture. Each result is the mean of one representative experiment performed in duplicate. The cultures with the purine nucleosides adenosine, 2′-deoxyadenosine, and arabinosyladenine contained 5 μM deoxycoformycin to inhibit adenosine deaminase activity.
(§1) All assays were performed in 24-well tissue culture plates (Costar, Cambridge, Ma.). […] At the end of the incubation, the cell concentrations, sizes, and volumes were counted in a Coulter counter (Coulter Electronics, Hialeah. Fla.).

CEM-SS cells [4] = test: as above
Description: […] Each result is the mean of one representative experiment performed in duplicate. The cultures with the purine nucleosides adenosine, 2′-deoxyadenosine, and arabinosyladenine contained 5 μM deoxycoformycin to inhibit adenosine deaminase activity.
as §1

CEM-r1 cells [5] = test: Efflux of [3H]-AZT and its metabolites; assay type: in vitro ADME, human
Description: Cells were incubated for 60 minutes with [^3H]-AZT (10 μM) after which they were washed free of radioactivity, resuspended in drug-free medium and the intracellular and the extracellular concentration of [^3H]-AZT were measured. […] At least 80% of the AZTMP present intracellularly in CEM-r1 cells was excreted into the medium in 10 minutes (FIG. 6A).
Referring to Table 6 in greater detail, efflux kinetics were studied. Transport analysis of PMEA was conducted as previously described^48. […] The cells were then washed free of radioactivity and then incubated in drug-free medium in the presence of sodium azide and 2-deoxy-D-glucose. At various time periods, the amount of intracellular AZTMP was measured. As reported in Table 6, depletion of ATP led to an inhibition of AZTMP efflux (i.e. a significant accumulation of AZTMP in the CEM-r1 cells but not in the CEM-SS cells).
The suspension was centrifuged at 3,300 rpm for 7 minutes. All but 1 ml of the supernatant medium containing the free drug was aspirated. […] The cell pellet was then washed with ice-cold medium and resuspended at the same concentration in drug-free medium and maintained at 37° C. […] An aliquot of the top layer (cell free media) was analyzed for the quantitation of AZT and its metabolites.

Nc1ncnc2c1ncn2CCOCP(=O)(O)OP(=O)(O)O [PMEAp]
Intracellular levels (CEM-SS cells [1]; 8 hr): 0.13 µM | Intracellular levels (CEM-SS cells [1]; 12 hr): 0.23 µM | Intracellular levels (CEM-r1 cells [2]; 8 hr): 0.005 µM | Intracellular levels (CEM-r1 cells [2]; 12 hr): 0.005 µM | Intracellular level in CEM-r1 as percent of the wildtype level (CEM-r1 cells [2]; 8 hr): (3.8%)

Nc1ncnc2c1ncn2CCOCP(=O)(O)OP(=O)(O)OP(=O)(O)O [PMEApp]
Intracellular levels (CEM-SS cells [1]; 8 hr): 0.22 µM | Intracellular levels (CEM-SS cells [1]; 12 hr): 0.41 µM | Intracellular levels (CEM-r1 cells [2]; 8 hr): 0.008 µM | Intracellular levels (CEM-r1 cells [2]; 12 hr): 0.01 µM | Intracellular level in CEM-r1 as percent of the wildtype level (CEM-r1 cells [2]; 8 hr): (3.6%)

NC(=O)NO [Hydroxyurea]
Relative Resistance (CEM-r1 cells [3]): ˜1 | pIC50 (CEM-r1 cells [3]; Homo sapiens, 48 h): 4.30 | pIC50 (CEM-SS cells [4]; Homo sapiens, CEM-SS, 48 h): 4.26

CC[C@]1(O)C[C@@H]2CN(CCc3c([nH]c4ccccc34)[C@@](C(=O)OC)(c3cc4c(cc3OC)N(C)[C@H]3[C@@](O)(C(=O)OC)[C@H](OC(C)=O)[C@]5(CC)C=CCN6CC[C@]43[C@@H]65)C2)C1 [Vinblastine]
Relative Resistance (CEM-r1 cells [3]): ˜1 | pIC50 (CEM-r1 cells [3]; Homo sapiens, 48 h): 8.68 | Cross-resistance of CEM-r1 cells (in words) (CEM-r1 cells [3]): not resistant | pIC50 (CEM-SS cells [4]; Homo sapiens, CEM-SS, 48 h): 8.74

Nc1nc(N)c2ncn(CCOCP(=O)(O)O)c2n1 [PMEADAP]
Relative Resistance (CEM-r1 cells [3]): 533 | pIC50 (CEM-r1 cells [3]; Homo sapiens, 48 h): 2.92 | Cross-resistance of CEM-r1 cells (in words) (CEM-r1 cells [3]): highly cross-resistant | pIC50 (CEM-SS cells [4]; Homo sapiens, CEM-SS, 48 h): 5.64

Nc1ncnc2c1ncn2[C@H]1C[C@H](O)[C@@H](CO)O1 [2′-Deoxyadenosine]
Relative Resistance (CEM-r1 cells [3]): ˜1 | pIC50 (CEM-r1 cells [3]; Homo sapiens, 48 h): 5.60 | pIC50 (CEM-SS cells [4]; Homo sapiens, CEM-SS, 48 h): 5.77

Nc1nc(Cl)nc2c1ncn2[C@H]1C[C@H](O)[C@@H](CO)O1 [2-Chlorodeoxyadenosine]
Relative Resistance (CEM-r1 cells [3]): 5.5 | pIC50 (CEM-r1 cells [3]; Homo sapiens, 48 h): 6.40 | Cross-resistance of CEM-r1 cells (in words) (CEM-r1 cells [3]): partially resistant | pIC50 (CEM-SS cells [4]; Homo sapiens, CEM-SS, 48 h): 7.10

Nc1nc2c(ncn2CCOCP(=O)(O)O)c(=O)[nH]1 [PMEG, 9-(2-phosphonylmethoxyethyl)guanine]
pIC50 (CEM-r1 cells [3]; CEM-r1, 2 days of culture (Table 3)): 4.72 | pIC50 (CEM-r1 cells [3]; read-out: Cytotoxicity IC50, CEM-r1 cells (Table 5)): 3.70 | Cross-resistance of CEM-r1 cells (in words) (CEM-r1 cells [3]): partial cross-resistance | pIC50 (CEM-SS cells [4]; CEM-SS, 2 days of culture (Table 3)): 6.15 | pIC50 (CEM-SS cells [4]; read-out: Cytotoxicity IC50, WT (CEM-SS) cells (Table 5)): 5.30

Cc1cn([C@H]2C[C@H](N=[N+]=[N-])[C@@H](COP(=O)(O)OP(=O)(O)O)O2)c(=O)[nH]c1=O [AZTDP]
Change of intracellular levels over the time period studied (CEM-r1 cells [5]): did not change significantly | Share of total cellular anabolites (CEM-r1 cells [5]): 1%
